According to patent US20070048372A1, “Method for treating non-inflammatory osteoarthritic pain” (SRZ Properties, Inc., priority 2005, published 2007):
Entries after “also recorded” stand apart in the source; their conditions may differ.

Tests used:
[1] = tested on: monosodium iodoacetate-induced tactile allodynia; test: Monosodium iodoacetate-induced tactile allodynia (von Frey filaments); format: in vivo, rat (Wistar)
[2] = tested on: rat formalin paw test (late phase); test: Rat formalin paw test (late phase): number of flinches and licking time; format: in vivo, rat (Rj: Wistar (Han))
Method: Rats were given an intraplantar injection of 5% formalin (50 μl) into the posterior left paw. This treatment induces a recognizable flinching and licking response of the affected paw in control animals. The number of flinches was counted for 15 minutes, beginning 20 minutes after injection of formalin. The time spent licking the affected paw was also recorded.
Male Rj: Wistar (Han) rats, 10 per group, weighing 100-130 g at the beginning of the experiments were studied per group. The test was performed blind.
Lacosamide (20 mg/kg), gabapentin (50 and 100 mg/kg), combinations of lacosamide (20 mg/kg) with gabapentin (50 and 100 mg/kg), and vehicle were administered i.p. 10 minutes before injection of formalin.
Lacosamide (10 and 20 mg/kg), morphine (2 and 4 mg/kg), combinations of lacosamide (10 and 20 mg/kg) with morphine (2 and 4 mg/kg), and vehicle were administered i.p. 10 minutes before injection of formalin.
Lacosamide (10 mg/kg), duloxetine (8 mg/kg), a combination of lacosamide (10 mg/kg) with duloxetine (8 mg/kg), and vehicle were administered i.p. 10 minutes before injection of formalin.
Lacosamide (10 and 20 mg/kg), memantine (4 and 8 mg/kg), combinations of lacosamide (10 and 20 mg/kg) with memantine (4 and 8 mg/kg), and vehicle were administered i.p. 10 minutes before injection of formalin.
Lacosamide (10 and 20 mg/kg), naproxen (8 and 16 mg/kg), combinations of lacosamide (10 and 20 mg/kg) with […] (8 and 16 mg/kg), and vehicle were administered i.p. 10 minutes before injection of formalin. Morphine (8 mg/kg) was included as a comparative treatment.

[3] = tested on: muscle pressure hyperalgesia induced by TNF; test: TNF-induced muscle pressure hyperalgesia (Randall-Selitto, withdrawal threshold to muscle pressure); format: in vivo, rat (Sprague Dawley); conditions: for reversal of muscular mechanical hyperalgesia (withdrawal threshold to muscle pressure): 18 h after TNF i.m., 30 to 60 minutes after drug
Method: (§1) Adult male Sprague Dawley rats with a body weight of 250 g to 300 g were used (supplier: Charles River, Sulzfeld, Germany). Animals were group-housed (3 animals per cage) and maintained in a room with controlled temperature (21-22° C.) and a reversed light-dark cycle (12 h/12 h) with food and water available ad libitum. All experiments were approved by the Bavarian State animal experimentation committee and carried out in accordance with its regulations.
(§2) Recombinant rat tumor necrosis factor alpha (herein referred to as TNF) was obtained from R&D Systems, Minneapolis, Minn., U.S.A. TNF was diluted in 0.9% NaCl and used in a concentration of 1 μg in 50 μl. Injections were performed in short halothane narcosis with a 30 g needle bilaterally into the gastrocnemius or into the biceps brachii muscle. All rats were used to the behavioral tests before injections and baseline values were recorded over three test days.
Mechanical withdrawal thresholds to muscle pressure were measured with an analgesimeter (Ugo Basile, Comerio, Italy). The rat was allowed to crawl into a sock which helps the rat to relax. The hind limbs were positioned such that an increasing pressure could be applied onto the gastrocnemius muscle (maximum 250 g). The pressure needed to elicit withdrawal was recorded. Means of 3 trials for each hind limb were calculated (interstimulus interval of >30 sec). Only animals with a significant TNF effect were included for further analysis.
Rats were injected with TNF into the gastrocnemius muscle at 2 pm. Eighteen hours later, rats were tested for pressure hyperalgesia pre- and post-administration of the test drug. Rats were tested for pressure hyperalgesia 30 to 60 minutes after drug administration.
(§3) The rats, initially 10 per group, were treated with either 3, 10 or 30 mg/kg lacosamide, 2 mg/kg metamizol, 30 or 100 mg/kg pregabalin, 100 mg/kg gabapentin, or the NaCl vehicle, i.p. (intraperitoneally). Volume of i.p. injections was 0.5 ml. A pilot study was performed to confirm that i.m. (intramuscular) injection of 1 μg TNF into the gastrocnemius muscle was sufficient to induce pressure hyperalgesia.
(§4) Data are shown in graphs displaying means and standard errors of the means (SEM). Pre- and post-treatment data were compared using ANOVA (analysis of variance) and a Tukey post hoc test. Means of treatment groups were compared using a one-way ANOVA and Dunnett's post hoc test. Maximal possible effects (MPE) were calculated for all types of treatment.

[4] = tested on: biceps muscle grip strength after TNF-induced muscle pain; test: Biceps muscle grip strength after TNF-induced muscle pain; format: in vivo, rat (Sprague Dawley); conditions: for reversal of TNF-induced reduction of grip strength: 6 h after TNF i.m., 30 to 60 minutes after drug
Method: as §1, §2
Grip strength of the forelimbs was tested with a digital grip force meter (DFIS series, Chatillon, Greensboro, NC, U.S.A.). The rat was positioned to grab the grid with the forelimbs and was gently pulled so that the grip strength could be recorded. Means of three trials were calculated. The effect of the TNF treatment was calculated for each animal separately and only animals with a significant TNF effect were included for further analysis.
Rats were injected with TNF into the biceps brachii muscle at 8 am. Six hours later, grip strength of the forelimbs was tested with a digital grip force meter. Test drug was administered, and grip strength was again tested after 30 to 60 minutes.
as §3, §4

[5] = tested on: monosodium iodoacetate-induced mechanical hyperalgesia; test: Monosodium iodoacetate-induced mechanical hyperalgesia (Randall-Selitto paw pressure); format: in vivo, rat (Wistar)

## COC[C@@H](NC(C)=O)C(=O)NCc1ccccc1 [Lacosamide, (R)-2-acetamido-N-benzyl-3-methoxypropionamide]
[1]; day 3, 30 mg/kg p.o., 60 minutes before test
  tactile allodynia of iodoacetate-treated rats (von Frey): improved tactile allodynia
[1]; day 7, 30 mg/kg p.o., 60 minutes before test
  tactile allodynia of iodoacetate-treated rats (von Frey): improved tactile allodynia
[1]; day 14, 30 mg/kg p.o., 60 minutes before test
  tactile allodynia of iodoacetate-treated rats (von Frey): not on day 14
[1]; lower doses (3 and 10 mg/kg p.o.)
  tactile allodynia of iodoacetate-treated rats (von Frey): showed a trend for such improvement
[2]; Example 3, 20 mg/kg i.p. alone
  Licking time % change (a) compared with vehicle control: −34% (a)
  Licking time (seconds) mean ± SEM: 146.9 ± 23.8 NS (a) seconds
  No. of flinches % change (a) compared with vehicle control: −33% (a)
  No. of flinches mean ± SEM: 85.7 ± 14.3 NS (a)
  decrease of the number of flinches as compared with vehicle controls: 33%
  decrease of the time spent licking as compared with vehicle controls: 34%
[2]; Example 4, 10 mg/kg i.p. alone
  Licking time % change (a) compared with vehicle control: −28% (a)
  Licking time (seconds) mean ± SEM: 210.1 ± 22.7 (a) seconds
  No. of flinches % change (a) compared with vehicle control: +22% (a)
  No. of flinches mean ± SEM: 182.7 ± 25.9 NS (a)
  decrease of the time spent licking as compared with vehicle controls: 28%
  increase of the number of flinches as compared with vehicle controls: 22%
[2]; Example 4, 20 mg/kg i.p. alone
  Licking time % change (a) compared with vehicle control: −56% (a)
  Licking time (seconds) mean ± SEM: 128.2 ± 28.0 (a) seconds
  No. of flinches % change (a) compared with vehicle control: −35% (a)
  No. of flinches mean ± SEM: 97.2 ± 16.0 NS (a)
  decrease of the number of flinches as compared with vehicle controls: 35%
  decrease of the time spent licking as compared with vehicle controls: 56%
[2]; Example 5, 10 mg/kg i.p. alone
  Licking time % change (a) compared with vehicle control: −30% (a)
  Licking time (seconds) mean ± SEM: 185.2 ± 31.7 NS (a) seconds
  No. of flinches % change (a) compared with vehicle control: +5% (a)
  No. of flinches mean ± SEM: 158.2 ± 15.6 NS (a)
  decrease of the time spent licking as compared with vehicle controls: 30%
  effects on the number of flinches and the time spent licking: had no significant effects
[2]; Example 6, 10 mg/kg i.p. alone
  Licking time % change (a) compared with vehicle control: −4% (a)
  Licking time (seconds) mean ± SEM: 168.5 ± 23.9 NS (a) seconds
  No. of flinches % change (a) compared with vehicle control: −31% (a)
  No. of flinches mean ± SEM: 113.9 ± 23.2 NS (a)
  decrease of the number of flinches as compared with vehicle controls: 31%
  effect on the time spent licking as compared with vehicle controls: had no clear effects
[2]; Example 6, 20 mg/kg i.p. alone
  Licking time % change (a) compared with vehicle control: −52% (a)
  Licking time (seconds) mean ± SEM: 85.1 ± 19.1 (a) seconds
  No. of flinches % change (a) compared with vehicle control: −48% (a)
  No. of flinches mean ± SEM: 85.8 ± 14.4 (a)
  decrease of the number of flinches as compared with vehicle controls: 48%
  decrease of the time spent licking as compared with vehicle controls: 52%
[2]; Example 7, 10 mg/kg i.p. alone
  Licking time % change (a) compared with vehicle control: −9% (a)
  Licking time (seconds) mean ± SEM: 174.7 ± 20.4 NS (a) seconds
  No. of flinches % change (a) compared with vehicle control: −13% (a)
  No. of flinches mean ± SEM: 99.2 ± 16.6 NS (a)
  effect on the time spent licking as compared with vehicle controls: had no clear effects
[2]; Example 7, 20 mg/kg i.p. alone
  Licking time % change (a) compared with vehicle control: −59% (a)
  Licking time (seconds) mean ± SEM: 78.9 ± 20.4 ***(a) seconds
  No. of flinches % change (a) compared with vehicle control: −12% (a)
  No. of flinches mean ± SEM: 100.3 ± 22.3 NS (a)
  decrease of the time spent licking as compared with vehicle controls: 59%
[2]; Example 7, 10 and 20 mg/kg i.p. alone
  effect on the number of flinches as compared with vehicle controls: did not clearly affect
[3]; 10 mg/kg i.p.
  MPE (maximal possible effect) on muscle pressure hyperalgesia, compared with vehicle: significantly different from vehicle
[3]; 30 mg/kg i.p.
  MPE (maximal possible effect) on muscle pressure hyperalgesia, compared with vehicle: significantly different from vehicle
  reversal of muscular mechanical hyperalgesia (withdrawal threshold to muscle pressure): full reversal
[3]; 30 mg/kg i.p., listed as lacosamide
  reversal of muscular mechanical hyperalgesia (withdrawal threshold to muscle pressure): complete reversal
[3]; 3, 10 and 30 mg/kg i.p.
  muscle hyperalgesia induced by TNF injection in the paw pressure test, dose dependence: dose-dependently improved
[4]; 10 mg/kg i.p.
  MPE (maximal possible effect) on biceps muscle grip strength, compared with vehicle: significantly different from vehicle
  reversal of TNF-induced reduction of grip strength: significant reversal; also recorded: reversed the effect of TNF on the muscle
[4]; 30 mg/kg i.p.
  MPE (maximal possible effect) on biceps muscle grip strength, compared with vehicle: significantly different from vehicle
  reversal of TNF-induced reduction of grip strength: significant reversal
[5]; day 3, 3 mg/kg p.o.
  paw pressure withdrawal threshold compared to iodoacetate/vehicle treated animals (mechanical hyperalgesia): increase in paw pressure withdrawal threshold
[5]; day 7, 3 mg/kg p.o.
  mechanical hyperalgesia (paw pressure withdrawal threshold): reduced mechanical hyperalgesia
[5]; day 7, 10 mg/kg p.o.
  mechanical hyperalgesia (paw pressure withdrawal threshold): reduced mechanical hyperalgesia
[5]; day 7, 30 mg/kg p.o.
  mechanical hyperalgesia (paw pressure withdrawal threshold): reduced mechanical hyperalgesia
[5]; day 14, 10 mg/kg p.o.
  mechanical hyperalgesia (paw pressure withdrawal threshold): did not show a statistically significant effect
[5]; p.o., overall conclusion
  mechanical hyperalgesia during the post-inflammatory period: inhibited mechanical hyperalgesia
